How the values were obtained:
MRSA = experiment: HADA-based synthesis of nascent cell wall; parameters: species or system Staphylococcus aureus; conditions: cefdinir alone or combination with lysozyme, 2 hours
Description: 8) Synthesis and digestion of cell wait. According to the reported method [Kuru E et al., ACS Chem Biol 14, 2745-2756 (2019)], over-night cultured MRSA was inoculated into LB medium and cultured at 37° C. with shaking at 250 rpm until when its OD600 reached 0.6. Then, these mid-log-phase MRSA was treated with cefdinir (0.5 μg/ml), lysozyme (0.5 mg/ml) alone or their combination. Those treated with mezlocillin (1.0 μg/ml) and without any treatment served as antibiotic-control and untreated group, respectively. Meanwhile, MRSA suspension in control group was further divided into two groups. i.e., control group and no drug group, Next, 10 μM HCC-Amino-D-alanine (HADA) was added into all samples except those in no drug group, in which HADA was replaced by PBS. After 2- or 4-hour incubation, all bacteria were collected by centrifugation at 3220 g for 10 minutes and then washed by cold PBS for 3 times to remove redundant HADA.

MRSE = experiment: High-throughput screening of 1953 FDA-approved compounds with human lysozyme; type: cell-based, Staphylococcus epidermis; conditions: compound 25 μM + 1 mg/ml lysozyme, 24-hour
Description: 1) High-throughput screening. According to standard screening method [Zhong. […] Commun. 11, 523 (2020)], 1953 FDA-approved compounds from our drugs library at a fixed concentrations of 25 μM were screened against methicillin-resistant Staphylococcus aureus (MRSA) and Staphylococcus epidermis (a coagulase negative Staphylococci, MRSE), in combination with human lysozyme. Specifically, these compounds were added into bacterial suspensions (1×10^5 CFU/ml, in LB medium) in the absence or presence of 1 mg/ml lysozyme. LB medium without bacteria served as background group. Then, the real-time growth curvet of MRSA were monitored per hour and for 24 hours. Absorbance at 600 am (OD600) of bacterial culture at the time point of 24-hour was also measured. The inhibition ratio (%) was calculated as (ODcontrol−ODsample)/(ODcontrol−ODbackground)×100%. […] Herein, the relative and apparent inhibition ratios indicated the combination effect and potential toxicity of compound, respectively. Synergy effect was defined as the relative inhibition ratio of ≥90%. All assays were performed in triplicate.

MRSA-infected skin wound [1] = experiment: Rat skin infection model, cefdinir/lysozyme; type: in vivo, Sprague Dawley (SD) rats; conditions: combination therapy vs control or mono-therapy groups
Description: 16) Rat skin Infection model. […] Others were infected by about 5×10^11 CFU of mid-log phase MRSA from our own collection. Briefly, all rats were firstly pre-depilated by using 10% Na2S to get an uncovered back area of 4 cm×4 cm prior to 24 hours for the anesthetization on rats. Then, the skin of anesthetized rat was removed until fascial region under sterile condition, followed by bacterial infection by spraying 5×10^11 CFU of MRSA suspension on wound (3 cm×3 cm). To collect these bacterial suspensions, mid-log phase MRSA would be collected by centrifugation at 4500 g for 15 minutes washed with PBS for 3 limes and re-suspended in cold PBS to get bacterial suspension with an initial density of about 4.0×10^11 CFU/ml according to pre-experiment. Next, 1.25 ml of bacterial suspensions was inoculated into wound, Normal saline was used to replace bacterial suspension in uninfected group. After 1 hour infection, wound of infected rat was covered by sterile medical gauze. All sterile medical gauzes were 0.2 g/cm^2, which were further covered by two layers of sterile gauzes and fixed by sterile tapes. After that, rats were monitored until they were fully awake, followed by return to their cages. After 24 hours infection, these sterile medical gauzes were replaced with new sterile medical gauzes. […] About 4-μm sections was analyzed by using the hematoxylin and eosin (H-E) staining. […]

MRSA in ARPE-19 cells = experiment: Cell infection model, tedizolid phosphate/lysozyme
MRSA-infected skin wound [2] = experiment: Rat skin infection model, tedizolid phosphate/lysozyme; type: in vivo, Sprague Dawley (SD) rats; conditions: combination therapy
Description: 19) Skin infection model. […] Except 3 rats in uninfected group, other 12 rats were infected by 5×10^11 CFUs of mid-log phase MRSA from our own collection. Briefly, all rats were firstly pec-depilated by using 10% Na2S to get an uncovered back area of 4 cm×4 cm before 24 hours for the anesthetization on rats. Then, the skin of anesthetized rat was removed until fascial region under sterile condition, followed by spraying 5.0×10^11 CFUs of mid-log phase MRSA on wound (3 cm×3 cm). Bacterial suspensions were collected by below-described method [Zhang. […] Specifically, mid-log phase MRSA was collected by centrifugation at 4500 g for 15 minutes, washed with PBS for 3 limes and re-suspended in cold PBS to get bacterial suspension with an initial density of about 4.0×10^11 CFU/ml according to pre-experiment. Next, 1.25 ml of bacterial suspension was sprayed onto wound. […] All sterile medical gauzes were 0.2 g/cm^2, and further covered by two layers of sterile gauzes and fixed by sterile tapes. Next, rats were monitored until they were fully awake, and then returned to their cages. After 24 hours infection, these sterile medical gauzes were replaced with new sterile medical gauzes soaking different drugs, i.e., normal saline, tedizolid phosphate (0.167 mg/kg) or lysozyme (0.833 mg/kg), or their combination (0.167 mg tedizolid phosphates/kg rat+0.833 mg lysosyme/kg rat), respectively. Meanwhile, rats in uninfected group were treated with new sterile medical gauzes soaking normal saline. All steps were repeated at 48-, 72-, 96-, 120- and 144-hr post-inoculation. At 168 hours post-inoculation, all rats were sacrificed to collect their wounds. These collected tissues were fixed in 10% formalin for at least 24 hours and embedded in paraffin. Next, about 4-μm sections were analyzed by using the hematoxylin and eosin (H-E) staining kit. […] Meanwhile, this homogenate was also 10-fold gradient-diluted in 96-well plate to figure out the bacterial load in infected wound according to quantitative grown colony after overnight culture. […]

Structure (SMILES): C=CC1=C(C(=O)O)N2C(=O)[C@@H](NC(=O)/C(=N\O)c3csc(N)n3)[C@H]2SC1 [cefdinir, Cefdinir]
- reduction in HADA signal intensity from nascent cell wall (MRSA): ~40%
- Growth inhibition ratio (mean ± SD, %) MRSE (MRSE): 20.31 ± 13.83%
- decrease in the level of IL-6 in wounds (MRSA-infected skin wound [1]): > 16%
- decrease in the level of ROS in wounds (MRSA-infected skin wound [1]): more than 36%

Structure (SMILES): Cn1nnc(-c2ccc(-c3ccc(N4C[C@H](COP(=O)(O)O)OC4=O)cc3F)cn2)n1 [tedizolid phosphate, Tedizolid Phosphate]
- death of infected ARPE-19 cells (MRSA in ARPE-19 cells; 1.0 μg/ml tedizolid phosphate + 0.5 mg/ml lysozyme, MOI 10): cell death was prevented
- bacterial load in ARPE-19 cells (MRSA in ARPE-19 cells; ≥1.0 μg/ml tedizolid phosphate in the presence of 0.5 mg/ml lysozyme, reduced from 10^7): 10^4 CFU/ml
- decrease in the level of IL-6 (MRSA-infected skin wound [2]; 7 days): more than 20%
- decrease in the level of ROS (MRSA-infected skin wound [2]; 7 days): > 70%
- reduction of bacterial load in the wound (MRSA-infected skin wound [2]; 168 hours post-inoculation): > 10^6 fold
